Data taken from patent publication US5830433A, “Radiolabeled growth hormone secretagogue” (Merck & Co., Inc., priority 1996, dated 1998).

Assay: storage stability of the radioligand in solution
Type: physicochemical
Conditions: trace hcl; stored at -20° C. as a solution in 15% methanol/water containing a trace of hydrochloric acid; read-out: stability, loss of radiochemical purity

- degraded at 730 h: < 0.5%
SMILES: CC(C)(N)C(=O)N[C@H](COCc1ccccc1)C(=O)N1CCC2(CC1)CN([35S](C)(=O)=O)c1ccccc12 [[^35 S]-radioligand, [^35 S]N-[1(R)-[(1,2-Dihydro-1-methanesulfonylspiro[3H-indole-3,4'-piperdin]-1'-yl)carbonyl]-2-(phenylmethyloxy)ethyl]-2-amino-2-methylpropanamide]
